Measurements reported in ChEMBL document CHEMBL1201862, “PubChem BioAssay data set” (2004).
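Tested at 5 concentrations; 48 h exposure; 96-well plates; endpoints linearly interpolated, else capped at highest concentration. Abbreviation: GI50, concentration required for 50% inhibition of growth.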 Activity calls are given as the source filed them. Rule as the data show it: active = GI50 up to about 1.1 µM and inactive = higher.

Experiments:
Assay in all cases: growth of human tumour cells (NCI), 48 h
CCRF-CEM = tested on: CCRF-CEM
HCT-116 = tested on: HCT-116
NCI-H226 = tested on: NCI-H226
786-0 = tested on: 786-0
SN12C = tested on: SN12C
Malme-3M = tested on: Malme-3M
MDA-MB-231 = tested on: MDA-MB-231
BT-549 = tested on: BT-549
TK-10 = tested on: TK-10
MDA-N = tested on: MDA-N
IGROV-1 = tested on: IGROV-1
OVCAR-5 = tested on: OVCAR-5
PC-3 = tested on: PC-3
NCI/ADR-RES = tested on: NCI/ADR-RES
A498 = tested on: A498
T47D = tested on: T47D
SR = tested on: SR
LOX IMVI = tested on: LOX IMVI
HT-29 = tested on: HT-29
OVCAR-4 = tested on: OVCAR-4
NCI-H460 = tested on: NCI-H460
U-251 = tested on: U-251
UACC-62 = tested on: UACC-62
SF-295 = tested on: SF-295
NCI-H522 = tested on: NCI-H522
RXF 393 = tested on: RXF 393
SK-MEL-28 = tested on: SK-MEL-28
MDA-MB-435 = tested on: MDA-MB-435
SK-MEL-5 = tested on: SK-MEL-5
K562 = tested on: K562
NCI-H23 = tested on: NCI-H23
M14 = tested on: M14
SNB-19 = tested on: SNB-19
HOP-92 = tested on: HOP-92
SF-268 = tested on: SF-268
SK-MEL-2 = tested on: SK-MEL-2
OVCAR-8 = tested on: OVCAR-8
HCC 2998 = tested on: HCC 2998
HCT-15 = tested on: HCT-15
CAKI-1 = tested on: CAKI-1
RPMI-8226 = tested on: RPMI-8226
UACC-257 = tested on: UACC-257
ACHN = tested on: ACHN
MCF7 = tested on: MCF7
EKVX = tested on: EKVX
KM12 = tested on: KM12
OVCAR-3 = tested on: OVCAR-3
COLO 205 = tested on: COLO 205
UO-31 = tested on: UO-31
Hs-578T = tested on: Hs-578T
SNB-75 = tested on: SNB-75
SF-539 = tested on: SF-539
HOP-62 = tested on: HOP-62
DU-145 = tested on: DU-145
A549 = tested on: A549
MOLT-4 = tested on: MOLT-4
SW-620 = tested on: SW-620
SK-OV-3 = tested on: SK-OV-3
HL-60 = tested on: HL-60

Measured: GI50

O=C(O)c1cccc(/[As]=[As]\c2cccc(C(=O)O)c2)c1 (configuration not stated)
36.3 µM: HCT-15
inactive: CCRF-CEM 21.9 µM | HCT-116 36.9 µM | NCI-H226 84.9 µM | 786-0 24.8 µM | SN12C 38.2 µM | Malme-3M 21.4 µM | MDA-MB-231 21.6 µM | BT-549 70.6 µM | TK-10 23.2 µM | MDA-N 61.1 µM | IGROV-1 34.2 µM | OVCAR-5 24.5 µM | PC-3 16.9 µM | NCI/ADR-RES 75.7 µM | A498 28 µM | T47D 34.9 µM | SR 28.7 µM | LOX IMVI 18.2 µM | HT-29 49.3 µM | OVCAR-4 51.9 µM | NCI-H460 36 µM | U-251 15.7 µM | UACC-62 33.3 µM | SF-295 > 100 µM | NCI-H522 17.9 µM | RXF 393 26.9 µM | SK-MEL-28 > 100 µM | MDA-MB-435 52.1 µM | SK-MEL-5 32.7 µM | K562 34.7 µM | NCI-H23 31 µM | M14 45.9 µM | SNB-19 32.2 µM | HOP-92 18.7 µM | SF-268 29.3 µM | SK-MEL-2 21.7 µM | OVCAR-8 34.6 µM | HCC 2998 57.7 µM | CAKI-1 16.4 µM | RPMI-8226 23 µM | UACC-257 40.9 µM | ACHN 73.3 µM | MCF7 32.9 µM | EKVX 59.8 µM | KM12 > 100 µM | OVCAR-3 34.4 µM | COLO 205 33 µM | UO-31 38.2 µM | Hs-578T 33.8 µM | SNB-75 21.5 µM | SF-539 16.6 µM | HOP-62 35.2 µM | DU-145 86.5 µM | A549 > 100 µM | MOLT-4 30.3 µM | SW-620 32.7 µM

Nc1cc(OCc2ccccc2)c(OCc2ccccc2)cc1C=O
inactive: CCRF-CEM 22.3 µM | HCT-116 21.2 µM | NCI-H226 44 µM | 786-0 17.5 µM | SN12C 28.1 µM | MDA-MB-231 44.2 µM | BT-549 14.5 µM | TK-10 15.3 µM | MDA-N 39.5 µM | IGROV-1 31.2 µM | OVCAR-5 55.2 µM | PC-3 35.1 µM | NCI/ADR-RES 33 µM | A498 11.6 µM | T47D 21.1 µM | SR 26.6 µM | LOX IMVI 26.2 µM | HT-29 22.9 µM | NCI-H460 14.1 µM | U-251 28.4 µM | SK-OV-3 52.5 µM | SF-295 31.4 µM | SK-MEL-28 42.1 µM | MDA-MB-435 39.8 µM | SK-MEL-5 24.7 µM | K562 44.4 µM | HL-60 15.2 µM | NCI-H23 > 10 µM | SNB-19 32.9 µM | SF-268 65.2 µM | SK-MEL-2 28.2 µM | OVCAR-8 26.4 µM | HCC 2998 8.57 µM | RPMI-8226 27 µM | UACC-257 85.9 µM | ACHN 26 µM | MCF7 36.7 µM | EKVX 24.4 µM | KM12 23.3 µM | COLO 205 24.7 µM | Hs-578T 42.4 µM | SNB-75 52.8 µM | SF-539 5.83 µM | HOP-62 > 10 µM | DU-145 31.6 µM | A549 23.8 µM | MOLT-4 18.6 µM | SW-620 46.2 µM
19.8 µM: HCT-15
active: NCI-H522 0.141 µM

CCCCCCCCCCCCCC(=O)OCC(CCS(=O)(=O)O[C@H]1CC[C@@]2(C)C(=CC[C@@H]3C2CC[C@]2(C)C(=O)CCC32)C1)OC(=O)CCCCCCCCCCCCC (some centres not stated)
inactive: CCRF-CEM > 100 µM | HCT-116 > 100 µM | 786-0 > 100 µM | SN12C > 100 µM | Malme-3M > 100 µM | MDA-MB-231 > 100 µM | BT-549 > 100 µM | TK-10 > 100 µM | MDA-N > 100 µM | IGROV-1 > 100 µM | OVCAR-5 > 100 µM | PC-3 > 100 µM | NCI/ADR-RES > 100 µM | A498 > 100 µM | T47D > 100 µM | SR > 100 µM | LOX IMVI > 100 µM | HT-29 > 100 µM | OVCAR-4 > 100 µM | NCI-H460 > 100 µM | U-251 > 100 µM | UACC-62 > 100 µM | SK-OV-3 > 100 µM | SF-295 > 100 µM | RXF 393 > 100 µM | SK-MEL-28 > 100 µM | MDA-MB-435 > 100 µM | SK-MEL-5 > 100 µM | K562 > 100 µM | HL-60 > 100 µM | NCI-H23 > 100 µM | M14 > 100 µM | SNB-19 > 100 µM | HOP-92 > 100 µM | SF-268 > 100 µM | SK-MEL-2 > 100 µM | HCC 2998 > 100 µM | CAKI-1 > 100 µM | RPMI-8226 > 100 µM | UACC-257 > 100 µM | ACHN > 100 µM | MCF7 > 100 µM | EKVX > 100 µM | KM12 > 100 µM | OVCAR-3 > 100 µM | COLO 205 > 100 µM | UO-31 > 100 µM | Hs-578T > 100 µM | SNB-75 > 100 µM | SF-539 > 100 µM | HOP-62 > 100 µM | DU-145 > 100 µM | A549 > 100 µM | SW-620 > 100 µM
> 100 µM: HCT-15

CC1CCN(c2nnc(Cl)cc2C(=O)c2ccccc2)CC1
inactive: CCRF-CEM 13.5 µM | HCT-116 29.6 µM | 786-0 41.7 µM | SN12C 50.7 µM | MDA-MB-231 27.5 µM | BT-549 30.3 µM | TK-10 37.6 µM | MDA-N 21.7 µM | IGROV-1 35.3 µM | OVCAR-5 77.4 µM | PC-3 20.4 µM | NCI/ADR-RES 36.6 µM | A498 35.7 µM | T47D 31.5 µM | SR 17.5 µM | LOX IMVI 29.4 µM | HT-29 17.7 µM | OVCAR-4 29.2 µM | NCI-H460 29.5 µM | U-251 31.1 µM | UACC-62 26.8 µM | SF-295 24.7 µM | NCI-H522 26.7 µM | RXF 393 16.9 µM | SK-MEL-28 39.3 µM | MDA-MB-435 21.5 µM | SK-MEL-5 16.6 µM | K562 53 µM | HL-60 44.4 µM | NCI-H23 25.5 µM | M14 27 µM | SNB-19 26.9 µM | HOP-92 16 µM | SF-268 1.67 µM | SK-MEL-2 18.5 µM | OVCAR-8 58.7 µM | HCC 2998 30.5 µM | CAKI-1 17.9 µM | UACC-257 18.7 µM | ACHN 49.9 µM | MCF7 19.4 µM | EKVX 29.8 µM | KM12 18 µM | OVCAR-3 22.4 µM | COLO 205 21.9 µM | UO-31 23.1 µM | Hs-578T 20 µM | SNB-75 27.5 µM | SF-539 25.4 µM | HOP-62 28.4 µM | DU-145 38.3 µM | A549 32.1 µM | MOLT-4 20.7 µM | SW-620 22.1 µM
35.6 µM: HCT-15

CCC(C)C(=O)OC1CC2(C)C(c3ccoc3)OC(=O)CC23OC2(C)OC34C(OC(=O)C(C)C)C3(O)C(OC(=O)C5(C)OC5C)C5(C)CC3(O)C(C)(C5CC(=O)OC)C14O2 (configuration not stated)
40.6 µM: HCT-15
inactive: CCRF-CEM 28.6 µM | HCT-116 54.7 µM | NCI-H226 51.6 µM | 786-0 > 100 µM | SN12C > 100 µM | Malme-3M > 100 µM | MDA-MB-231 56.2 µM | BT-549 60.7 µM | TK-10 65 µM | MDA-N 47.1 µM | IGROV-1 64.4 µM | OVCAR-5 91.2 µM | PC-3 31.8 µM | NCI/ADR-RES 21.7 µM | A498 75.5 µM | T47D 23.1 µM | SR 24.1 µM | LOX IMVI 52.7 µM | HT-29 29.7 µM | OVCAR-4 38.4 µM | NCI-H460 36.3 µM | U-251 86.1 µM | UACC-62 86.9 µM | SK-OV-3 > 100 µM | SF-295 41.1 µM | NCI-H522 37 µM | SK-MEL-28 > 100 µM | MDA-MB-435 83 µM | SK-MEL-5 22.8 µM | K562 27.8 µM | HL-60 15.6 µM | NCI-H23 54.3 µM | M14 42.9 µM | SNB-19 32.6 µM | HOP-92 36.8 µM | SF-268 47.2 µM | SK-MEL-2 68.7 µM | OVCAR-8 52.6 µM | HCC 2998 66.8 µM | CAKI-1 57.3 µM | UACC-257 79.4 µM | ACHN 37 µM | MCF7 17.6 µM | EKVX 24.3 µM | KM12 43 µM | COLO 205 20 µM | UO-31 35.9 µM | Hs-578T 14.5 µM | SNB-75 15.5 µM | SF-539 15 µM | DU-145 68.2 µM | A549 34.3 µM | MOLT-4 20.7 µM | SW-620 50 µM
